# Reference: patent US12440527B2, “Organic sol-gel nano-composition from panax notoginseng, rutin, ginkgo biloba effective in enhancing cerebral and cardiovascular protection and method of producing thereof” (priority 2020, dated 2025)
# Legend:
# Assay type in all cases: in vivo
# white mice = assay: Sedative effect on the advanced plus model (close/open branch)
# Description: (§1) In the test, the white mice were randomly divided into 4 batches, each batch having 10 animals: Batch 1 (biological control) was subjected to oral administration of 20 mL/kg/day distilled water; batch 2 (positive control) was subjected to oral administration of 2.4 mg/kg/day diazepam; batch 3 was subjected to oral administration of the composition at dose of 0.96 pill/kg/day (equivalent to the clinical dose); batch 4 was subjected to oral administration of the composition at dose of 2.88 pill/kg/day (3 times as much as the clinical dose).
# [1] = test system: white mice injected with nikethamide; assay: Anticonvulsant effect after nikethamide injection
# Description: as §1, with “dose). After the mice were injected with nikethamide, the time of convulsion onset and the death time of the mice were taken.” for “dose).”
# [2] = test system: white mice injected with nitroglycerin (NTG), chronic migraine model; assay: Vasomotor pain relieving effect on chronic migraine model (nitroglycerin injection, dolorimeter); conditions: oral 40 mg/kg propranolol, NTG 10 mg/kg
# Description: In the test, the white mice were randomly divided into 5 batches, each batch having 10 animals: Batch 1 (biological control) was subjected to oral administration of 0.2 ml/10 g water; batch 2 (model) injected 10 mg/kg with nitroglycerin (NTG) was subjected to oral administration of 0.2 mL/10 g water; batch 3 (positive control) injected with 10 mg/kg nitroglycerin was subjected to oral administration of 40 mg/kg propranolol; batch 4 injected with 10 mg/kg nitroglycerin was subjected to oral administration of the composition at dose of 0.96 pill/kg/day (equivalent to the clinical dose); batch 5 injected with 10 mg/kg nitroglycerin was subjected to oral administration of the composition at dose of 2.88 pill/kg/day (3 times as much as the clinical dose).
# [3] = After 7 days of oral administration of the drug, Diazepam at 2.4 mg/kg/day
# [4] = Before oral administration of the drug, Diazepam at 2.4 mg/kg/day batch
smiles,measurement,setting,value
"CN1C(=O)CN=C(c2ccccc2)c2cc(Cl)ccc21 [Diazepam, diazepam]",Avoidance rate at the open branch,white mice; [3],46.37 ± 9.21
same,Number of times of mouse introduction into the close branch,white mice; [3],6.40
same,Number of times of mouse introduction into the open branch,white mice; [3],6.90
same,Time of mouse introduction into the close branch,white mice; [3],121.20 s
same,Time of mouse introduction into the open branch,white mice; [3],150.10 s
same,Avoidance rate at the open branch,white mice; [4],69.21 ± 8.88
same,Number of times of mouse introduction into the close branch,white mice; [4],11.50
same,Number of times of mouse introduction into the open branch,white mice; [4],4.30
same,Time of mouse introduction into the close branch,white mice; [4],173.70 s
same,Time of mouse introduction into the open branch,white mice; [4],90.40 s
same,Effect on time of convulsion onset and death time vs model batch,"[1]; 2.4 mg/kg/day diazepam, after nikethamide injection",took effects in prolonging the time of convulsion onset and the death time
same,Death time of the mice after nikethamide injection,[1]; Diazepam at 2.4 mg/kg/day oral,14.91 ± 3.67 min
same,Time of convulsion onset,"[1]; Diazepam at 2.4 mg/kg/day oral, after nikethamide injection",2.08 ± 0.55 min
"CC(C)NCC(O)COc1cccc2ccccc12 (centres unmarked) [Propranolol, propranolol]",Pain-inducing force in the dolorimeter (baseline pain threshold),[2]; Day 3,7.6 ± 1.5 g
same,Pain-inducing force on the dolorimeter (pain threshold after treatment),[2]; Day 3,6.8 ± 1.2 g
same,Pain-inducing force in the dolorimeter (baseline pain threshold),[2]; Day 5,6.5 ± 1.1 g
same,Pain-inducing force on the dolorimeter (pain threshold after treatment),[2]; Day 5,7.0 ± 1.0 g
same,Pain-inducing force in the dolorimeter (baseline pain threshold),[2]; Day 7,6.4 ± 1.0 g
same,Pain-inducing force on the dolorimeter (pain threshold after treatment),[2]; Day 7,6.7 ± 0.5 g
same,Pain-inducing force in the dolorimeter (baseline pain threshold),[2]; Day 9,7.1 ± 0.9 g
same,Pain-inducing force on the dolorimeter (pain threshold after treatment),[2]; Day 9,6.7 ± 0.5 g
same,Pain-inducing force in the dolorimeter (baseline pain threshold),[2]; Day 11,7.1 ± 1.0 g
same,Pain-inducing force on the dolorimeter (pain threshold after treatment),[2]; Day 11,7.8 ± 0.7 g
